Data as given in article PMC7555276, “Using Ex Vivo Porcine Jejunum to Identify Membrane Transporter Substrates: A Screening Tool for Early—Stage Drug Development” (Biomedicines, 2020).
≈ marks a conversion by molar mass, not a printed value. Like-named read-outs stand apart in the source and are kept apart here.

What was measured:
P-gp = details: substrate of P-gp, cited from earlier work
OCT1 = details: substrate of OCT1; cited from earlier work
rat intestine = details: absence of inhibitor; cited from earlier work
ex vivo porcine jejunum = assay: Ussing chamber permeation across ex vivo porcine jejunum; format: in vitro ADME, pig; details: for QPERM (+INH) / QDEP (+INH): presence of the corresponding transporter inhibitor (as E19); for change of Papp,pig in the presence of the corresponding inhibitor / change of QDEP in the presence of the corresponding inhibitor: statistical comparison, α = 0.05, inhibitors as E19; for Papp,pig fold lower than Papp,human: vs reported ex vivo human intestine
Excerpt: (§1) Fresh jejunum from female, 6 month-old Swiss noble pigs was harvested immediately after slaughter (Abattoir de […], Switzerland and Abattoir de Loëx; Bernex, Switzerland). […] Briefly, the intestine was opened along the mesenteric border and carefully rinsed with ice-cold KBR. […] A six Ussing chamber system was used for the intestinal transport experiments (Physiologic Instruments; San Diego, CA, USA). The Ussing chambers were set up on a heating block connected to a VCC MC6 MultiChannel voltage-current clamp via six input modules, containing integral dummy membranes. A temperature of 38 °C (porcine body temperature) was maintained using a circulating water bath (ED-5, Julabo GmbH, Seelbach, Germany). The Ussing chamber system was set up following the protocol of […] et al. […] In a first step, the acceptor and donor compartments of the Ussing chamber were filled with preheated KBR, and any voltage difference between the electrodes and the electrical resistance due to the buffer solution was eliminated. […] The choice of all substrates and inhibitors was based on the University of California, San Francisco-Food and Drug Administration (UCSF-FDA) TransPortal. The substrates tested, their physicochemical properties and the inhibitors used are described in Table 1. […] The integrity of the intestinal tissue was monitored throughout the experiment by measurement of the transepithelial resistance (TEER). […] At the end of the experiment, samples were taken from the acceptor and the donor compartment. The intestinal tissue was cut into little pieces and extracted for 6 h at room temperature in the mobile phase used for the UHPLC-MS/MS analysis (see Supplementary Information). […] Mass spectrometry was performed in multiple reaction monitoring (MRM) mode. All details of the analytical methods used for each of the molecules tested can be found in the Supplementary Information.

[1] = as above; format: in vitro ADME, pig; details: female, Swiss noble, pig
Excerpt: as §1

[2] = system: porcine intestine (ileum, jejunum); parameters: method as in PMID 30901927; details: porcine ileum and jejunum; cited from earlier work
human intestine = system: human intestine; parameters: method as in PMID 23103351, PMID 21416475; details: absence of inhibitor; cited from earlier work
Solubility in KBR buffer = format: physicochemical; details: aqueous buffer, Krebs-bicarbonate ringer buffer pH 7.4
OATP2B1 = details: cited from earlier work
[3] = parameters: method as in earlier work; details: cited from earlier work
MRP2 = details: cited from earlier work
BCRP = details: cited from earlier work
PEPT1 = system: PEPT1; parameters: method as in PMID 18824524; details: inhibitor of PEPT1; cited from earlier work
[4] = drug in acceptor compartment at t = 2 h, absence of inhibitor
[5] = drug in acceptor compartment at t = 2 h
[6] = drug retained in intestinal membrane at t = 2 h, absence of inhibitor
[7] = drug retained in intestinal membrane at t = 2 h
[8] = pH 7.4, absence of inhibitor, substrate 100 µM (digoxin 50 µM), 38 °C, KBR, read-out: Papp,pig (−INH)
[9] = Krebs-bicarbonate ringer (KBR) buffer
[10] = female, Swiss noble, pig, 2 h, pH 7.4

SMILES | Papp,rat (−INH) (rat intestine) | QPERM (−INH) (ex vivo porcine jejunum; [4]) | QPERM (+INH) (ex vivo porcine jejunum; [5]) | QDEP (−INH) (ex vivo porcine jejunum; [6]) | QDEP (+INH) (ex vivo porcine jejunum; [7]) | change of Papp,pig in the presence of the corresponding inhibitor (ex vivo porcine jejunum) | Papp at 120 min [1, 8] | Papp,human (−INH) (human intestine) | solubility (Solubility in KBR buffer; [9]) | also measured
CNC(=C[N+](=O)[O-])NCCSCc1ccc(CN(C)C)o1 [Ranitidine] | 4.00 [72] 10^−6 cm/s | 0.62 ± 0.17 (12) % | 0.21 ± 0.03 (5) % | 1.11 ± 0.46% | 0.43 ± 0.12% | significant decrease | 5.07 ± 0.83 ×10⁻⁶ cm/s | 5.50 [72] 10^−6 cm/s | 19600 ± 2780 µg/mL (≈ 62.5 mM) | Km (P-gp; ref 93): 270 µM; Km (OCT1): 70 µM; change of QDEP in the presence of the corresponding inhibitor (ex vivo porcine jejunum): significant decrease; effect of P-gp inhibition on Papp,pig [2]: significant increase of Papp,pig in the ileum, but not in the jejunum
CC(C)c1nc(N(C)S(C)(=O)=O)nc(-c2ccc(F)cc2)c1/C=C/[C@@H](O)C[C@@H](O)CC(=O)O [Rosuvastatin] |  | 0.17 ± 0.09 (7) % | 0.29 ± 0.16 (6) % | 3.10 ± 1.46% | 1.30 ± 0.14% | significantly increased | 0.91 ± 0.64 ×10⁻⁶ cm/s | 6.95 ± 1.50 [30] 10^−6 cm/s | 420 ± 160 µg/mL (≈ 0.872 mM) | Km (OATP2B1; substrate of OATP2B1): 2.4 µM; change of QDEP in the presence of the corresponding inhibitor (ex vivo porcine jejunum): significantly decreased; Papp,pig fold lower than Papp,human (ex vivo porcine jejunum): ~ 9 fold; log P [3]: 0.13
C[C@H]1O[C@@H](O[C@H]2[C@@H](O)C[C@H](O[C@H]3[C@@H](O)C[C@H](O[C@H]4CC[C@@]5(C)[C@H](CC[C@@H]6[C@@H]5C[C@@H](O)[C@]5(C)[C@@H](C7=CC(=O)OC7)CC[C@]65O)C4)O[C@@H]3C)O[C@@H]2C)C[C@H](O)[C@@H]1O [Digoxin] | 6.4 ± 1.9 [14] 10^−6 cm/s |  |  |  |  | significantly increased |  | 1.44 ± 0.72 [30] 10^−6 cm/s |  | Km (P-gp; ref 58): 73 µM; Km (P-gp; ref 95): 0.73 µM; QDEP (−INH) (ex vivo porcine jejunum; [10]): 0.62 ± 0.17%; QPERM (−INH) (ex vivo porcine jejunum; [10]): 0.21 ± 0.12 (4) %; Papp at 120 min ([1]; pH 7.4, Papp,pig (−INH)): 0.38 ± 0.23 ×10⁻⁶ cm/s; solubility (Solubility in KBR buffer): 40 ± 10 µg/mL (≈ 0.0512 mM)
CCCCC(=O)N(Cc1ccc(-c2ccccc2-c2nnn[nH]2)cc1)[C@H](C(=O)O)C(C)C [Valsartan] |  | 0.17 ± 0.02 (4) % | 0.24 ± 0.10 (4) % | 0.44 ± 0.02% | 0.57 ± 0.07% | No significant difference | 1.2 ± 0.1 ×10⁻⁶ cm/s |  |  | change of QDEP in the presence of the corresponding inhibitor (ex vivo porcine jejunum): significantly higher; Km (MRP2; substrate of MRP2): 30.4 µM
O=C(O)c1cc(/N=N/c2ccc(S(=O)(=O)Nc3ccccn3)cc2)ccc1O [Sulfasalazine] | 2.76 ± 0.19 [73] 10^−6 cm/s |  | 0.12 ± 0.07 (9) % | 3.23 ± 0.56% | 2.47 ± 1.24% |  | 0.006 ± 0.004 ×10⁻⁶ cm/s | 0.09 ± 0.06 [30] 10^−6 cm/s | 3310 ± 140 µg/mL (≈ 8.31 mM) | fold increase of Papp,pig in the presence of the inhibitor (ex vivo porcine jejunum; digoxin+verapamil, sulfasalazine+fluvastatin): 100 fold; Papp,pig fold lower than Papp,human (ex vivo porcine jejunum): ~ 10 fold; log P [3]: 0.4; Km (BCRP; substrate of BCRP): 0.7 µM
CCCCc1nc(Cl)c(CO)n1Cc1ccc(-c2ccccc2-c2nn[nH]n2)cc1 [Losartan] |  |  |  |  |  |  |  |  |  | IC50 (PEPT1): 52 µM; Ki (PEPT1): 24 µM
CN(CCOc1ccc(CC2SC(=O)NC2=O)cc1)c1ccccn1 (stereo not drawn) [Rosiglitazone] |  |  |  |  |  |  |  |  |  | IC50 (OATP2B1; inhibitor of OATP2B1): 5.2 µM
COc1ccc2c(c1)c(CC(=O)O)c(C)n2C(=O)c1ccc(Cl)cc1 [Indomethacin] |  |  |  |  |  |  |  |  |  | IC50 (MRP2; inhibitor of MRP2): 0.06 µM
CC(C)n1c(/C=C/C(O)CC(O)CC(=O)O)c(-c2ccc(F)cc2)c2ccccc21 (stereo not drawn) [Fluvastatin] |  |  |  |  |  |  |  |  |  | Ki (BCRP; inhibitor of BCRP): 5.43 µM
CC1=C(C(=O)O)N2C(=O)[C@@H](NC(=O)[C@H](N)c3ccc(O)cc3)[C@H]2SC1 [Cefadroxil] | 4.99 ± 0.50 [70] 10^−6 cm/s | 0.50 ± 0.18 (4) % | 0.31 ± 0.12 (6) % | 1.31 ± 0.40% | 1.47 ± 0.25% | statistically significant decrease | 2.82 ± 0.2 ×10⁻⁶ cm/s |  | 45000 ± 1100 µg/mL (≈ 124 mM) | Papp,pig fold lower than Papp,rat (ex vivo porcine jejunum; corresponding segment of the intestine): ~ 1.8 fold; log P [3]: −0.4
CN/C(=N/CCSCc1nc[nH]c1C)NC#N [cimetidine] |  |  |  |  |  |  |  |  |  | effect of P-gp inhibition on Papp,pig [2]: significant increase of Papp,pig in the ileum, but not in the jejunum
